According to US10174202B2, “Dyes with phosphinic acid, phosphinate, phosphonate and phosphonamidate substituents as auxochromic groups and methods for preparing the same” (Max-Planck-Gesellschaft zur Foerderung der Wissenschaften …, priority 2017, dated 2019):
Values joined by “and” are separate entries in the source; they are usually repeats but may differ in a detail not shown here. Equal values may be shown once. Where a name gives a salt, the structure may show the parent alone. Marks after values point to notes of the source that are not given here.

What was measured:
[1] = Absorption spectroscopy (UV/Vis); type: physicochemical
Protocol: (§1) Absorption spectra were recorded with a Varian Cary 4000 UV-Vis double-beam spectrophotometer (Agilent Technologies, USA). For the determination of the absorption spectra, quartz cells with a 1 cm path length were used. Emission spectra and fluorescence quantum yield were obtained on a Quantaurus-QY Absolute PL quantum yield spectrometer C11347 (Hamamatsu Photonics, Japan) or on a Varian Cary Eclipse fluorescence spectrometer (Agilent Technologies, USA).

Fluorescence lifetime = type: physicochemical
[2] = Emission spectra and fluorescence quantum yield; type: physicochemical
Protocol: as §1

[3] = test system: vimentin-HaloTag fusion protein in a living HeLa cell; test: Confocal and STED imaging of vimentin-HaloTag in living cells; type: cell-based; set-up: key to verified as a label in STED microscopy: verified as a label in super-resolution microscopy based on stimulated emission depletion (STED with 775 nm STED laser)
Protocol: (§2) STED and confocal counterpart images were acquired using the commercially available two-color STED 775 quad scanning microscope from Abberior Instruments (Gottingen, Germany) equipped with an Olympus IX83 microscope stand and an Olympus UplanSApo 100×/1.4 OIL objective. Dyes were excited respective their excitation; the STED laser was pulsed at 775 nm.
(§3) For these experiments, STED optical microscopy was performed as indicated above.
The vimentin-HaloTag was labeled with 16-Halo (1 μM for 20 min at growth conditions, 10 min wash) and excited using a pulsed 594 nm laser. Fluorescence was detected in both available detection channels (605-625 nm, 655-715nm) and summed up for the final images. Scale bar: 4 μm; pixel dwell time: 10 μs; pixel size: 20 nm for both the STED and the confocal image. Each line was scanned four times, and the counts were accumulated.

[4] = test system: tubulin filaments in a methanol-fixed Vero cell; test: Confocal and STED imaging of immunolabelled tubulin filaments; type: cell-based; set-up: key to verified as a label in STED microscopy: verified as a label in super-resolution microscopy based on stimulated emission depletion (STED with 775 nm STED laser)
Protocol: as §2, §3
Tubulin was marked using a mouse monoclonal primary antibody against alpha-tubulin together with secondary antibody detection (sheep-anti-mouse conjugated with the dye 23-NHS). 23 was excited using a pulsed 485 nm laser. Fluorescence was detected in both available detection channels (605-625 nm, 655-715nm) and summed up for the final images. Scale bar: 4 μm; pixel dwell time: 10 μs; pixel size: 25 nm for both the STED and the confocal image. Each line in the STED channel was scanned twice, and the counts were accumulated.

SMILES | Absorption max. ([1]; in aq. PBS, pH 7.4) [nm] | ε at absorption max. ([1]; in aq. PBS, pH 7.4) [M⁻¹ cm⁻¹] | Stability (Stability of the dyes) | Emission max. ([2]; in aq. PBS, pH 7.4) [nm] | QY (fluorescence quantum yield, Φfl) ([2]; in aq. PBS, pH 7.4) | Stokes shift ([2]; in aq. PBS, pH 7.4) | Absorption max. ([1]; in acetonitrile) [nm] | ε at absorption max. ([1]; in acetonitrile) [M⁻¹ cm⁻¹] | Stokes shift ([2]; in acetonitrile) | further results
CN(C)c1ccc2c(P(=O)(Oc3ccccc3C(=O)[O-])N(C)C)c3ccc(=[N+](C)C)cc-3oc2c1 (centres unmarked) [Compound 9, 2-[[3,6-Bis(dimethylamino)-9H-xanthenylium-9yl](dimethylamino)phosphoryloxy]-benzoate] | 603 | 69000 | moderate | 638 | 0.09 | 35 nm | – | – | – | Absorption max. ([1]; in methanol): 589 nm; ε at absorption max. ([1]; in methanol): 49000 M⁻¹ cm⁻¹; fluorescence lifetime (Fluorescence lifetime; in aq. PBS, pH 7.4): 1.88 ns; Emission max. ([2]; in methanol): 622 nm; QY (fluorescence quantum yield, Φfl) ([2]; in methanol): 0.36; Stokes shift ([2]; in methanol): 33 nm
CCOP(=O)(c1c2ccc(=[N+](C)C)cc-2oc2cc(N(C)C)ccc12)N(C)CCC(=O)O.O=C([O-])C(F)(F)F (centres unmarked) [Compound 10] | 625 | 13816 | – | 670 | 0.15 | 45 nm | 615 | 22224 | 37 nm | stability of solutions (Stability of the dyes; protic solvents (MeOH, H2O), particularly in the presence of acids, forms compound 11): spontaneously decompose; Emission max. ([2]; in acetonitrile): 652 nm; QY (fluorescence quantum yield, Φfl) ([2]; in acetonitrile): 0.46
CCN(CC)CC.CN(CCCCCC(=O)[O-])C(=O)CCP(=O)(O)c1c2ccc(N(C)C)cc2[o+]c2cc(N(C)C)ccc12 [Compound 16, Triethylammonium 6-[3-[[3,6-bis(dimethylamino)-9H-xanthenylium-9-yl]oxidophosphoryl]-N-methylpropanamido]hexanoate] | – | – | – | – | – | – | – | – | – | ε at absorption max. ([1]; pH 7.4): 10750 M⁻¹ cm⁻¹; Emission max. ([2]; pH 7.4): 636 nm and 636 ^ (0.30)^b nm; Stokes shift ([2]; pH 7.4): 33^b nm; verified as a label in STED microscopy ([3]; STED with 775 nm STED laser): good^f
CN(C)c1ccc2c(P(=O)([O-])CCC(=O)NCCOCCOCCCCCCCl)c3ccc(=[N+](C)C)cc-3oc2c1 [Compound 16-Halo, 3-[[2[2-(6-chlorohexyloxy)ethoxy]ethyl]amino]-3-oxopropyl[6-(dimethylamino)-3-(dimethyliminio)-3H-xanthen-9-yl]phosphinate] | – | – | – | – | – | – | – | – | – | labelling of vimentin-HaloTag ([3]; 1 μM for 20 min at growth conditions, 10 min wash, excitation 594 nm): labeled
CC[N+](CC)=c1ccc2c(P(=O)(OC)OC)c3c(oc-2c1)-c1ccc(N(C)C)cc1CC3.O=C([O-])C(F)(F)F [Compound 20, 10-(Diethylamino)-7-(dimethoxyphosphoryl)-3-(dimethylamino)-6,7-dihydro-5H-benzo[c]xanthenylium trifluoroacetate] | 693 | 29000 | – | 754 | 0.02 | 61 nm | 681 | 40000 | 56 nm | fluorescence lifetime (Fluorescence lifetime; in acetonitrile): 1.50 ns; Emission max. ([2]; in acetonitrile, trifluoroacetate): 737 nm and 754 nm
COP(=O)([c+]1c2ccc(N(C)C)cc2sc2cc(N(C)C)ccc21)N(C(C)C)C(C)C.O=C([O-])C(F)(F)F (centres unmarked) [Compound 21, 9-[(Diisopropylamino)(methoxy)phosphoryl]-3,6-bis(dimethylamino)-9H-thioxanthen-9-ylium trifluoroacetate] | – | – | moderate | – | – | – | 654 | 64000 | 74^a nm | fluorescence lifetime (Fluorescence lifetime; in acetonitrile): 0.77 ns; Emission max. ([2]; in acetonitrile): 728 nm; QY (fluorescence quantum yield, Φfl) ([2]; in acetonitrile): 0.10
CN(C)c1ccc2c([PH](=O)O)c3ccc(N(C)C)cc3[n+](CCCC(=O)O)c2c1.O=C([O-])C(F)(F)F [Compound 23, 10-(3-Carboxypropyl)-3,6-bis(dimethylamino)-9-(hydroxyhydrophosphoryl)acridinium trifluoroacetate] | 535 | 38000 | – | – | 0.14 and 0.10 | – | – | – | – | Absorption max. ([1]; in methanol): 527 nm; ε at absorption max. ([1]; in methanol): 67000 M⁻¹ cm⁻¹; fluorescence lifetime (Fluorescence lifetime; in aq. PBS, pH 7.4): 1.36 ns; Emission max. ([2]; in methanol): 579 nm; QY (fluorescence quantum yield, Φfl) ([2]; in methanol): 0.75; verified as a label in STED microscopy ([4]; STED with 775 nm STED laser): f
CN(C)c1ccc2c([PH](=O)[O-])c3ccc(N(C)C)cc3[n+](CCCC(=O)ON3C(=O)CCC3=O)c2c1 [Compound 23-NHS, [10-(3-Carboxypropyl)-3,6-bis(dimethylamino)acridinium-9-yl]phosphinate NHS ester] | – | – | – | – | – | – | – | – | – | labelling of tubulin via secondary antibody conjugate ([4]; sheep-anti-mouse antibody conjugated with the dye, excitation 485 nm): marked
CC(C)OP(=O)(OC(C)C)C1=C2C=CC(=[N+](C)C)C=C2C(C)(C)c2cc(N(C)C)ccc21 [Compound 24, 9-(Diisopropoxyphosphoryl)-3,6-bis(dimethylamino)-10,10-dimethyl-9,10-dihydro-anthracenylium trifluoromethanesulfonate] | – | – | moderate | – | – | – | – | – | – | –
C=CCOP(=O)(C1=C2C=CC(=[N+](C)C)C=C2C(C)(C)c2cc(N(C)C)ccc21)N(C(C)C)C(C)C (centres unmarked) [Compound 25, 9-[(Allyloxy)(diisopropylamino)phosphoryl]-3,6-bis(dimethylamino)-10,10-dimethyl-9,10-dihydroanthracenylium trifluoromethanesulfonate] | – | – | poor | – | – | – | – | – | – | –
C=CCOP(=O)(C1=c2cc3c(cc2C(C)(C)c2cc4c(cc21)CCCN4CCOC)=[N+](CCOC)CCC3)N(C(C)C)C(C)C (centres unmarked) [Compound 26, 6-[(Allyloxy)(diisopropylamino)phosphoryl]-1,11-bis(2-methoxyethyl)-13,13-dimethyl-1,2,3,4,6,8,9,10,11,13-decahydrobenzo[1,2-g:5,4-g′]diquinolin-6-ylium trifluoroacetate] | 734 | 34700 | poor | 860 | 0.05 | 126 nm | 724 | 46700 | 88 nm | Emission max. ([2]; in acetonitrile): 812 nm; QY (fluorescence quantum yield, Φfl) ([2]; in acetonitrile): 0.08
COP(=O)([C+]1c2ccc(N(C)C)cc2-c2cccc3c(N(C)C)ccc1c23)N(C(C)C)C(C)C.O=C([O-])C(F)(F)F (centres unmarked) [Compound 28, 7-[(Diisopropylamino)(methoxy)phosphoryl]-4,10-bis(dimethylamino)-7H-benzo[de]anthracen-7-ylium trifluoroacetate] | 644 | 7600 | poor | 782 | 0.04 | 138^b nm | – | – | – | –
